# Measured values from publication PMC5532286, “In silico, in vitro, X-ray crystallography, and integrated strategies for discovering spermidine synthase inhibitors for Chagas disease” (Scientific Reports, 2017).
# Where two headings read alike, the source gives them in different places.
# Legend:
# [1] = target: T1, TcSpdSyn (Trypanosoma cruzi, UniProt Q4DA73); experiment: biochemical; type: biochemical; details: for Hill (4PL curve fitting parameter) / Max (4PL curve fitting parameter, inhibition%) / min (4PL curve fitting parameter, inhibition%) / LoggedX50 (4PL curve fitting parameter): Supplementary Table 3; for LoggedX50 (4PL curve fitting parameter): Log10 of X50
# Description: To identify TcSpdSyn inhibitors, we performed an in vitro enzyme inhibition assay on 176 compounds sourced from the chemical compound library at Astellas Pharma.
# The TcSpdSyn inhibition assay was performed essentially as previously[27] described. Briefly, the assay was an enzyme-coupled assay incorporating spermidine/spermine N(1)-acetyltransferase 1 (SSAT1). 7-Diethylamino-3-(4-maleimidylphenyl)-4-methylcoumarin (CPM) (cat. D-346, Thermo Fischer Scientific) was used to measure the coenzyme A produced by the SSAT1 reaction. […] The fluorescence signal was then detected in a plate reader (Paradigm, Molecular Devices Inc.) with excitation at 405 nm and emission at 530 nm. Each IC50 value was measured using eight different concentrations in quadruplicate. […] Compounds 1, 3, and 4 were used in their salt forms, whereas compound 2 was used in its free form. The corresponding salts were oxalic acid for compound 1 and HCl for compounds 3 and 4. These compounds were dissolved in dimethyl sulfoxide (DMSO), and the maximum final DMSO concentration in the assays was 1.3%.
# Supplementary Figure 3. The fitting curve for IC50 calculation of the compounds on Table 1 (Compounds 1, 2, 3, 4, and 4MCHA correspond to (a), (b), (c), (d) and (e), respectively). The vertical line and horizontal axis's represent inhibition% for TcSpdSyn and compound concentration. The closed circles show the inhibition% measured at each dose. The error bars indicate the standard error of the inhibition% measured at each dose. For curve fitting, the following four paramter logoistic (4PL) model1 is used. The paramter […]
# [2] = target: T1, TcSpdSyn; set-up: method as in PMID 26327378; details: cited from earlier work
# T1 sequence (Q4DA73 entry or part of it): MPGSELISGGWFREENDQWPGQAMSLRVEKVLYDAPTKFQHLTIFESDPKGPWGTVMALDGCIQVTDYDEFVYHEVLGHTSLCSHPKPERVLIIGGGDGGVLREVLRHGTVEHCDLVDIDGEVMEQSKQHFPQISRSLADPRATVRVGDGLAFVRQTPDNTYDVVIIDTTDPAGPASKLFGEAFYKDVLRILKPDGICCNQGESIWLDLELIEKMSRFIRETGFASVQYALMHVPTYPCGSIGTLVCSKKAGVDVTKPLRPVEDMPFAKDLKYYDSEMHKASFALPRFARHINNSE
SMILES,Hill (4PL curve fitting parameter) [1],"Max (4PL curve fitting parameter, inhibition%) [1]","min (4PL curve fitting parameter, inhibition%) [1]",LoggedX50 (4PL curve fitting parameter) [1],IC50 ([1]; read-out: IC50 for TcSpdSyn) [µM],IC50 [2] [µM],IC50 [1] [µM]
"NCCc1ccc(O)c(O)c1 [Compound 4, 4-(2-Aminoethyl)-1,2-benzenediol]",1.03,100.00,0.00,1.82,66,,
"C[C@H]1CC[C@H](N)CC1 [Compound 4MCHA, trans-4-methylcyclohexylamine, reference compound]",1.01,100.00,0.00,0.29,1.9,1.7,
"CCOc1ccc2c(c1)c(CCN)cn2CC [Compound 3, 2-(5-Ethoxy-1-ethyl-1H-indol-3-yl)ethanamine]",1.44,100.00,0.00,2.05,,,113
"NCCc1ccccc1F [Compound 1, 2-(2-Fluorophenyl)ethanamine]",0.90,100.00,0.00,2.09,,,124
"O=c1nc(Nc2nc(O)nc(O)n2)sc2ccccc12 [Compound 2, 2-[(4,6-dihydroxy-1,3,5-triazin-2-yl)amino]-4H-1,3-benzothiazin-4-one]",1.27,100.00,0.00,1.46,28,,
